Measurements reported in patent USRE45313E1, “Exendin variant peptides” (priority 1999, dated 2014).

Tests used:
leucine aminopeptidase = target: T1, leucine aminopeptidase (Sus scrofa, UniProt P28839); assay: In vitro stability in leucine aminopeptidase solution; settings: pH 7.4
T1 sequence (P28839 1-519): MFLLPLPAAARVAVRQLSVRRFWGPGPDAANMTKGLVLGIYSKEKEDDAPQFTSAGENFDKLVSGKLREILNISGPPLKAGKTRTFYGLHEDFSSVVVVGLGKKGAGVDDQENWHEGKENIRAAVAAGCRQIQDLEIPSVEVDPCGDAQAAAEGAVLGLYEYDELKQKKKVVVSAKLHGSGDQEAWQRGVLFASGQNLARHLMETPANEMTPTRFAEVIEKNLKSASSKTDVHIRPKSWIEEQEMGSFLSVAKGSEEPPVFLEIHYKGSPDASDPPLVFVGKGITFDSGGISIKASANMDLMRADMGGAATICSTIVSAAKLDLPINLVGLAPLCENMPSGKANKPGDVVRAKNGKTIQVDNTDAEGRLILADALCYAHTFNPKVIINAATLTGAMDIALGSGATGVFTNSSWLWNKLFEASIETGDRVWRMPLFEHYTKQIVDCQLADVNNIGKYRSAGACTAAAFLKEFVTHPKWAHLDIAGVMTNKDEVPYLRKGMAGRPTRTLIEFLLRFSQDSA
Description: (§1) A SHT200D block heater from Stuart Scientific was used for heating of the peptide/enzyme solutions during the stability experiments. The degradation of the test compounds was studied at 37° C. in 50 mM phosphate buffer solutions of pH 7.4 containing leucine aminopeptidase (25 U/ml) or carboxypeptidase A (1 U/ml) or 100 mM ammoniumbicarbonate buffer of pH 8.0 containing dipeptidyl aminopeptidase IV (0.5 U/ml). Experiments were initiated by addition of an aliquot (100 μl) of a stock solution (1 mg/ml) of the peptide in water to 900 μl preheated enzyme solution in an Eppendorf microvial giving an initial concentration of 0.1 mg/ml (˜1.7·10−5-1.8·10−5 M) of the peptide. The peptide/enzyme solution was kept at 37° C. and at appropriate time intervals samples of 100 μl were withdrawn from the peptide/enzyme solution and mixed thoroughly with 20 μl 25% TFA in acetonitrile in order to stop the enzymatic degradation process. The inactivated samples were transferred to autosampler vials and analysed for content of intact test compound by HPLC as described below.
(§2) Samples from the stability experiments performed as described above were analysed by gradient HPLC analysis using the instrumentation described above and the following experimental conditions.
(§3) In vitro stability studies with the present peptides and peptide conjugates in the presence of selected proteolytic enzymes are applied as a tool for evaluating the protection of said peptides against proteolysis in vivo.
(§4) Water used was of highest quality obtained from a Milli-Q water treatment system (Millipore, Bedford, Mass., U.S.A.). Acetonitrile (ACN) was of super gradient quality obtained from Labscan Ltd. (Dublin, Ireland). […] Leucine aminopeptidase (EC 3.4.11.1), Carboxypeptidase A (EC 3.4.17.1) and Dipeptidyl peptidase (Dipeptidyl aminopeptidase IV, EC 3.4.14.5) were all obtained from Sigma (St. Louis, Mo., U.S.A.). Gradient HPLC analysis was done using a Hewlett Packard HP 1100 HPLC system consisting of a HP 1100 Binary Pump, a HP 1100 Autosampler, A HP 1100 Column Thermostat and a HP 1100 Variable Wavelength Detector. Hewlett Packard Chem-station for LC software (Rev. A.06.01) was used for instrument control and data acquisition. A Vydac 238TP54 (150×4.6 mm I.D.) column packed with 5 μm, C18, 300 Å

carboxypeptidase A = target: T2, carboxypeptidase A (Bos taurus, UniProt P00730); assay: In vitro stability in carboxypeptidase A solution; settings: pH 7.4
T2 sequence (P00730 111-419): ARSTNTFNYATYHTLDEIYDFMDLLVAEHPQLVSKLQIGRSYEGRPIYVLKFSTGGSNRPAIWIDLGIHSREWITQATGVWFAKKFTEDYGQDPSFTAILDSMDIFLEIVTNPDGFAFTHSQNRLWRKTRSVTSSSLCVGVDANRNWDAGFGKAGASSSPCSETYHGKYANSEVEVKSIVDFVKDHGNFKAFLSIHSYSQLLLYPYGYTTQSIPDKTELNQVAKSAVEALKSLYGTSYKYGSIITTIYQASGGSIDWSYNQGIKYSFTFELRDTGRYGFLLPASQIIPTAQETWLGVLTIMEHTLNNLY
Description: as §1, §2, §3, §4

[1] = target: dipeptidyl aminopeptidase IV (Sus scrofa, UniProt P22411); assay: In vitro stability in dipeptidyl aminopeptidase IV solution; settings: pH 8
Chain of dipeptidyl aminopeptidase IV (P22411 whole entry): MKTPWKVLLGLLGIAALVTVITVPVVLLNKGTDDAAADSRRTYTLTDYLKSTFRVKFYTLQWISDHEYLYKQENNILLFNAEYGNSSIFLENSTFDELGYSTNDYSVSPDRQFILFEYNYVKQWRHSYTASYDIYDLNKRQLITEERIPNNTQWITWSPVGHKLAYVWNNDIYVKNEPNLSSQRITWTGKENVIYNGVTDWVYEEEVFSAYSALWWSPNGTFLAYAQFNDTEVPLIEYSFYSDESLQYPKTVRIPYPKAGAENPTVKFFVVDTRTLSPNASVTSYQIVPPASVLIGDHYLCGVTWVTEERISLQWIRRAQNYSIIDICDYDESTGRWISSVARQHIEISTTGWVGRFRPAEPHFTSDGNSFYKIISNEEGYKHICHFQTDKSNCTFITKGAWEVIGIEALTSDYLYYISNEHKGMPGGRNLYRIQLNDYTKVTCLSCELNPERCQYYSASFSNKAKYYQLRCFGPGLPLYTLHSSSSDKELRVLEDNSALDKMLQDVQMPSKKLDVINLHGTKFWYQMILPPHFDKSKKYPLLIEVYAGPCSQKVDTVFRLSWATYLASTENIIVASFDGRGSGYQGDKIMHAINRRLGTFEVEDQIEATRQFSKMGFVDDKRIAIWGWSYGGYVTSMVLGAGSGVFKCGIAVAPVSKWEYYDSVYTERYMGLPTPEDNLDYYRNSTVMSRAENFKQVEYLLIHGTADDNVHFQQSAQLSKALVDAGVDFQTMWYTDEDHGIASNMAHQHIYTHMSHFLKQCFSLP
Description: as §1, §2, §3, §4

[2] = target: T3, (Rattus norvegicus, UniProt P32301); settings: inhibition of [^125I]GLP-1 binding; cited from earlier work
T3 construct: host or cells: brain tissue: nucleus of the solitary tract
T3 sequence (P32301 22-463): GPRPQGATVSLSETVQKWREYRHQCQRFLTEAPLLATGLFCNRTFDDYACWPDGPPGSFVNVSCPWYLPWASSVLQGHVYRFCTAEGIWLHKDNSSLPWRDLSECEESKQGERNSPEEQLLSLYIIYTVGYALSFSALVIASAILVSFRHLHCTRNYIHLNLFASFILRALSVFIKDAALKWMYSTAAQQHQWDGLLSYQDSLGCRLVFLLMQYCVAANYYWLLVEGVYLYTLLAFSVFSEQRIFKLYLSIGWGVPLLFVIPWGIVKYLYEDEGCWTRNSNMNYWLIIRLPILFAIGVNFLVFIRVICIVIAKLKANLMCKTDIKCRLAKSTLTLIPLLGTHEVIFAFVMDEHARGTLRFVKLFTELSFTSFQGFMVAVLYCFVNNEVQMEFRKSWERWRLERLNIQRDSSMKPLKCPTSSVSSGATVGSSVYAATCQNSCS

Q: For `CC[C@H](C)[C@H](NC(=O)[C@H](Cc1ccccc1)NC(=O)[C@H](CCC(=O)O)NC(=O)[C@H](CCCCN)NC(=O)[C@H](C)NC(=O)[C@H](C)NC(=O)[C@H](CCC(N)=O)NC(=O)CNC(=O)[C@H](CCC(=O)O)NC(=O)[C@H](CC(C)C)NC(=O)[C@H](Cc1ccc(O)cc1)NC(=O)[C@H](CO)NC(=O)[C@H](CO)NC(=O)[C@@H](NC(=O)[C@H](CC(=O)O)NC(=O)[C@H](CO)NC(=O)[C@@H](NC(=O)[C@H](Cc1ccccc1)NC(=O)[C@@H](NC(=O)CNC(=O)[C@H](CCC(=O)O)NC(=O)[C@H](C)NC(=O)[C@@H](N)Cc1c[nH]cn1)[C@@H](C)O)[C@@H](C)O)C(C)C)C(=O)N[C@@H](C)C(=O)N[C@@H](Cc1c[nH]c2ccccc12)C(=O)N[C@@H](CC(C)C)C(=O)N[C@H](C(=O)N[C@@H](CCCCN)C(=O)NCC(=O)N[C@@H](CCCNC(=N)N)C(N)=O)C(C)C` [GLP-1, H-hGLP-1(7-36)-NH2, reference compound], which half-life at 0.1 mg/ml (leucine aminopeptidase) is on record?
A: The half-life at 0.1 mg/ml was 152 min.

Q: And the half-life at 0.1 mg/ml (carboxypeptidase A)?
A: The half-life at 0.1 mg/ml was 48 min.

Q: And the half-life at 0.1 mg/ml [1]?
A: The half-life at 0.1 mg/ml was 2 min.

Q: For [Tyr39]exendin-4, which Ki [2] is on record?
A: Its Ki is 9.4 nM.
